Measured values as given in US8673890B2, “2,3-dihydro-1H-isoindol-1-imine derivatives useful as thrombin PAR-1 receptor antagonist” (Janssen Pharmaceutica NV, priority 2009, dated 2014).
Values joined by “and” are separate entries in the source; they are usually repeats but may differ in a detail not shown here. Equal entries are not always repeated.

Tests used:
[1] = test system: platelets in platelet-rich plasma; assay: Har peptide-induced platelet aggregation in platelet-rich plasma; type: cell-based, human; settings: multiple values = individual measurements
Description: (§1) The procedure for this assay is similar to that described in Biological Example 2, above. Briefly, platelet aggregation studies were performed according to the method of Bednar et al. (Bednar, B., Condra, C., Gould, R. J., and Connolly, T. M., Thromb. Res., 77:453-463 (1995)). Platelet-rich plasma (PRP) concentrates prepared from healthy volunteers who were aspirin free for at least 7 days by venipuncture using EDTA as anticoagulant was purchased from Biological Specialties, Inc. (Colmar, Pa.). PPP (platelet-poor-plasma) was obtained by centrifugation of PRP at Max (3,000 rpms) for 15 min at room temperature. PRP was diluted to yield platelet count of 300×10^3 platelets/μL with PPP. For thrombin induced platelet aggregation: 118 μL of 500 mM GPRP-NH2 was added to 12 mL of 300×10^3 platelets before using (to clean the fibrinogen in the plasma.) GPRP was added just before the experiment. 15 μL of test compound solutions were added to 120 μL of platelets 5 min prior the agonist additions. Platelet aggregation was initiated by the addition of agonist shown to achieve 60-70% aggregation. Antagonist potency was estimated as a % inhibition of the control Har peptide or thrombin response to obtain an IC50.
(§2) Where multiple values are listed for a particular compound, said numbers represent individual measurements (tests) for said compound.

[2] = test system: platelets in platelet-rich plasma; assay: Thrombin-induced platelet aggregation in platelet-rich plasma; type: cell-based, human; settings: for IC50: multiple values = individual measurements; for inhibition at 10 µM: 10 μM compound
Description: as §1, §2

[3] = target: T1, thrombin receptor (PAR-1) (Homo sapiens, UniProt P25116); assay: FLIPR-based calcium-flux assay with human smooth muscle cells (Har peptide agonist); type: cell-based; settings: HSMC; 30 nM Har (PAR1) peptide agonist; 80-min drug incubation; multiple values = individual measurements
T1 construct: Human aortic smooth muscle cells (HSMC) were purchased from Cascade Biologics; host or cells: human aortic smooth muscle cells (HSMC)
T1 sequence (P25116 22-425): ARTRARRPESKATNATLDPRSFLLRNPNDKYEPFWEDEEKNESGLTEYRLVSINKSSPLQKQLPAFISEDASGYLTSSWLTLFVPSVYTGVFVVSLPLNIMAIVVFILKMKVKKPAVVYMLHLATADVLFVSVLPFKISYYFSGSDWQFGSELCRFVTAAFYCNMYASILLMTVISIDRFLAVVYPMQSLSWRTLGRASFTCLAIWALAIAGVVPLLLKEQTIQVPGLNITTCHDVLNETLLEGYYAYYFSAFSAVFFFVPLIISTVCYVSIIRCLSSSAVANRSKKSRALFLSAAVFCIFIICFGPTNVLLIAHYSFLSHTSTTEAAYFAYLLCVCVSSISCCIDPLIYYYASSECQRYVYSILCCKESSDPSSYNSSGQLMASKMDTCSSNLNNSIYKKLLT
Description: Human aortic smooth muscle cells (HSMC) were purchased from Cascade Biologics (Portland, Oreg.) and cultured in M-231 containing smooth muscle cell growth supplement and 1× Antibiotic-Antimycotic.
To determine agonist concentration for compound testing: On the day prior to the assay, 100 μL of cells (2×10^5/mL) were seeded in clear, flat-bottom black-wall, tissue culture treated polystyrene 96-well plates and incubated at 37° C., 5% CO2. On the day of the assay, 50 μL of complete dye loading solution (FLIPR Calcium 3 Kit, Molecular Devices) was added to each well containing 100 μL of culture media. The cells were incubated for 30-45 min at 37° C., in 5% CO2 before initiating the assay on the FLIPR. The agonist effect of PAR1 peptide (S-(p-F-Phe)-Har-L-Har-KY-NH2; Har=homoarginine; referred to herein as “Har” peptide) was tested and the EC50 was determined. The EC60-70 dose was used (30 nM) for compound testing.
Compound testing: On the day prior to the assay, 90 μL of cells (2.2×10^5/mL) were seeded in clear, flat-bottom black-wall, tissue culture treated polystyrene 96-well plates and incubated at 37° C., 5% CO2. On the day of the assay, the test compounds were prepared at 10× in 3% DMSO Hanks buffer and 10 μL was added to each well (final DMSO concentration of 0.3%). The cells were incubated 20 min at 37° C., 5% CO2. Culture medium containing testing compounds was dumped and the cells were washed four times with DPBS containing 0.1% of BSA and re-fed with 80 μL of growth medium. 70 μL of BD (fluorescent) dye was loaded to the cells and incubated 45 min at 37° C. incubator. The plates were equilibrated to room temperature for 15 min. 4× PAR1 peptide (30 nM final concentration) agonist plate and the cell plate were placed in FLIPR's assay chamber. 50 μL agonist was added to the cells and data was recorded for 5 min. Raw fluorescence data was exported for each well and tabulated versus time within an ASCII file. Data was then imported into Excel® and the peak response over basal level was determined. The percent inhibition for each test compound was calculated by the changes of fluorescent density as a % inhibition of the control Har peptide response to obtain an IC50.
Representative compounds of the present invention were tested according to the procedure described in Biological Example 1 above, with results in Table 8 below. In Table 8 below, where multiple values are listed for a particular compound, said numbers represent individual measurements (tests) for said compound.

SMILES	IC50 ([1]; Homo sapiens, Platelet) [nM]	IC50 [1]	IC50 ([2]; Homo sapiens, Platelet) [nM]	IC50 [2]	IC50 [3]	inhibition at 10 µM ([2]; Homo sapiens) [%]
COc1c(N2CCOCC2)cc(C(=O)CN2Cc3cc4c(cc3C2=N)OCc2cc(F)c(F)cc2CO4)cc1C(C)(C)C [Compound 89]	1280	2310 nM	4880	4610 nM and 6020 nM	0.29 µM and 0.13 µM	
CC(C)(C)c1cc(C(=O)CN2Cc3cc4c(cc3C2=N)OCCCCO4)cc(C(C)(C)C)c1O [Compound 5]					0.032 µM	
COc1c(N2CCOCC2)cc(C(=O)CN2Cc3cc4c(cc3C2=N)OCc2ccccc2CO4)cc1C(C)(C)C [Compound 46]	1820	1040 nM	4710		0.094 µM and 0.1 µM	34
COc1c(N2CCOCC2)cc(C(=O)CN2Cc3cc4c(cc3C2=N)OCCNCCO4)cc1C(C)(C)C [Compound 42, 1-(3-tert-butyl-4-methoxy-5-morpholinophenyl)-2-(9-imino-3,4,5,6-tetrahydro-[1,4,7]dioxazonino[2,3-f]isoindol-10(2H,9H,11H)-yl)ethanone]					0.66 µM and > 1 µM and 1.3 µM	
CC(C)(C)c1cc(C(=O)CN2Cc3cc4c(cc3C2=N)OCC(CC=O)CO4)cc(C(C)(C)C)c1O (stereo not shown) [Compound 14, 2-(8-(2-(3,5-di-tert-butyl-4-hydroxyphenyl)-2-oxoethyl)-7-imino-2,3,4,7,8,9-hexahydro-[1,4]dioxepino[2,3-f]isoindol-3-yl)acetaldehyde]					0.78 µM	
COc1c(N2CCOCC2)cc(C(=O)CN2Cc3cc4c(cc3C2=N)OCC(CC2NCCS2)CO4)cc1C(C)(C)C (stereo not shown) [Compound 44]					0.1 µM and 0.12 µM	
CC(C)(C)c1cc(C(=O)CN2Cc3cc4c(c(F)c3C2=N)OCc2ccccc2CO4)cc(C(C)(C)C)c1O [Compound 96]	1570	2300 nM	3230	3250 nM	0.031 µM and 0.015 µM	
COC(=O)c1cc2c(cc1C(=O)OC)COc1cc3c(cc1OC2)CN(CC(=O)c1cc(C(C)(C)C)c(O)c(C(C)(C)C)c1)C3=N [Compound 102]					0.35 µM	
CC(C)(C)c1cc(C(=O)CN2Cc3cc4c(cc3C2=N)OCc2ncccc2CO4)ccc1O [Compound 82]	640	930 nM	2570		0.11 µM and 0.17 µM	21
COC(=O)c1ccc2c(c1)COc1cc3c(cc1OC2)C(=N)N(CC(=O)c1cc(C(C)(C)C)c(O)c(C(C)(C)C)c1)C3 [Compound 80]	> 10000	13100 nM	> 10000	> 10000 nM	0.073 µM and 0.16 µM	
CC(C)(C)c1cc(C(=O)CN2Cc3cc4c(cc3C2=N)OCc2cc([N+](=O)[O-])ccc2CO4)cc(C(C)(C)C)c1O [Compound 84]	2470		2510		0.029 µM and 0.047 µM and 0.048 µM and 0.011 µM	
CC(C)(C)c1cc(C(=O)CN2Cc3cc4c(cc3C2=N)OCC(F)(F)CO4)cc(C(C)(C)C)c1O [Compound 93]	2080	3800 nM	> 10000	> 10000 nM	0.27 µM and 0.13 µM	
CC(C)(C)c1cc(C(=O)CN2Cc3cc4c(cc3C2=N)OCc2c(F)ccc(F)c2CO4)cc(C(C)(C)C)c1O [Compound 87]	7380	> 10000 nM	> 10000	> 10000 nM	0.043 µM and 0.02 µM	
COc1c(N2CCOCC2)cc(C(=O)CN2Cc3cc4c(cc3C2=N)OCc2c(F)ccc(F)c2CO4)cc1C(C)(C)C [Compound 88]	1630	1210 nM	3550	2660 nM	0.091 µM and 0.024 µM	
CC1(C)COc2cc3c(cc2OC1)C(=N)N(CC(=O)c1cc(C(C)(C)C)c(O)c(C(C)(C)C)c1)C3 [Compound 9]					0.16 µM	
CC(C)(C)c1cc(C(=O)CN2Cc3cc4c(cc3C2=N)OCc2ccc(C(=O)O)cc2CO4)cc(C(C)(C)C)c1O [Compound 81]	> 10000	> 10000 nM	> 10000	> 10000 nM	0.054 µM and 0.082 µM and 0.014 µM	
COc1c(N2CCN(C)CC2)cc(C(=O)CN2Cc3cc4c(cc3C2=N)OCc2cccnc2CO4)cc1C(C)(C)C [Compound 71]	290	480 nM	380		0.064 µM and 0.044 µM	
COC(=O)c1cc2c(cc1C(=O)OC)COc1cc3c(cc1OC2)CN(CC(=O)c1cc(N2CCOCC2)c(OC)c(C(C)(C)C)c1)C3=N [Compound 103]					1.1 µM	
CC(C)(C)c1cc(C(=O)CN2Cc3cc4c(cc3C2=N)OCC(CCN2CCOCC2)CO4)cc(C(C)(C)C)c1O (stereo not shown) [Compound 12]					0.551 µM	
COC(=O)c1ccc2c(c1)COc1cc3c(cc1OC2)CN(CC(=O)c1cc(C(C)(C)C)c(O)c(C(C)(C)C)c1)C3=N [Compound 55]		2430 nM and > 10000 nM and 11100 nM	> 10000	> 10000 nM		
COc1c(N2CCOCC2)cc(C(=O)CN2Cc3cc4c(cc3C2=N)OCC(CCN2CCSC2)CO4)cc1C(C)(C)C (stereo not shown) [Compound 45]					0.15 µM and 0.18 µM	
CNCCC1COc2cc3c(cc2OC1)C(=N)N(CC(=O)c1cc(C(C)(C)C)c(O)c(C(C)(C)C)c1)C3 (stereo not shown) [Compound 37]					> 3 µM	
CC(C)(C)c1cc(C(=O)CN2Cc3cc4c(cc3C2=N)OCC(CCN2CCCC2)CO4)cc(C(C)(C)C)c1O (stereo not shown) [Compound 13]					> 3 µM	
COc1c(Br)cc(C(=O)CN2Cc3cc4c(cc3C2=N)OCc2ncccc2CO4)cc1C(C)(C)C [Compound 54]					1.1 µM and > 3 µM and 0.75 µM	
CC(C)(C)c1cc(C(=O)CN2Cc3cc4c(cc3C2=N)OCCCO4)cc(C(C)(C)C)c1O [Compound 4, 1-(3,5-di-tert-butyl-4-hydroxyphenyl)-2-(7-imino-3,4-dihydro-[1,4]dioxepino[2,3-f]isoindol-8(2H,7H,9H)-yl)ethanone]					0.13 µM and 0.068 µM	
CN(C)CCC1COc2cc3c(cc2OC1)C(=N)N(CC(=O)c1cc(C(C)(C)C)c(O)c(C(C)(C)C)c1)C3 (stereo not shown) [Compound 16, 1-(3,5-di-tert-butyl-4-hydroxyphenyl)-2-(3-(2-(dimethylamino)ethyl)-7-imino-3,4-dihydro-[1,4]dioxepino[2,3-f]isoindol-8(2H,7H,9H)-yl)ethanone]					> 1 µM	
COc1c(N2CCOCC2)cc(C(=O)CN2Cc3cc4c(cc3C2=N)OCCN(C(=O)OC(C)(C)C)CCO4)cc1C(C)(C)C [Compound 41, tert-butyl 10-(2-(3-tert-butyl-4-methoxy-5-morpholinophenyl)-2-oxoethyl)-9-imino-2,3,5,6,10,11-hexahydro-[1,4,7]dioxazonino[2,3-f]isoindole-4(9H)-carboxylate]					0.54 µM and > 1 µM and 1.2 µM	
CN1CCN(CCC2COc3cc4c(cc3OC2)C(=N)N(CC(=O)c2cc(C(C)(C)C)c(O)c(C(C)(C)C)c2)C4)CC1 (stereo not shown) [Compound 15]					> 3 µM	
CC(C)(C)c1cc(C(=O)CN2Cc3cc4c(cc3C2=N)OCc2cccnc2CO4)cc(C(C)(C)C)c1O [Compound 48]					0.044 µM and 0.053 µM	
COc1c(N2CCOCC2)cc(C(=O)CN2Cc3cc4c(cc3C2=N)OCC(CCN2CCOCC2)CO4)cc1C(C)(C)C (stereo not shown) [Compound 43]					0.45 µM and 0.68 µM	
